According to PubChem BioAssay (NCI):
Where “and” joins values, the source holds several entries; their conditions need not be identical. Equal entries are not always repeated.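 Cells were grown in 96-well plates and exposed to each compound for 48 hours at five concentrations; endpoints were interpolated linearly between bracketing concentrations, or set to the highest concentration if not reached. Abbreviation: GI50, concentration required for 50% inhibition of growth. TGI: concentration producing complete growth inhibition.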

Key:
Assay in all cases: NCI anticancer screen, dose series, 48 h
HOP-18 NSCLC = test system: HOP-18 NSCLC
XF 498 CNS = test system: XF 498 CNS
LXFL 529 NSCLC = test system: LXFL 529 NSCLC
NCI/ADR-RES ovarian = test system: NCI/ADR-RES ovarian
MDA-MB-435 = test system: MDA-MB-435
DU-145 prostate = test system: DU-145 prostate
T-47D breast = test system: T-47D breast
HS 578T breast = test system: HS 578T breast
BT-549 breast = test system: BT-549 breast
MCF7 breast = test system: MCF7 breast

SMILES | TGI (HOP-18 NSCLC) [µM] | TGI (XF 498 CNS) [µM] | TGI (LXFL 529 NSCLC) [µM] | further results
COc1ccc(C=O)c(N(C)C(=O)C(C)(C)C)c1 | > 100 | > 100 |  | 
Cc1cc2c(C)nn(Cc3ccc(Cl)cc3Cl)c2c(C#N)c1C | > 100 | > 100 | > 100 | 
COC(=O)C12C3C=CC(O3)C1C1C=CC2O1 (stereo not given) | > 100 | > 100 | > 100 | 
CC(=O)OCC1OC(n2cnc3c(I)nc(I)nc32)C(OC(C)=O)C1OC(C)=O (stereo not given) |  | 35.9 | 26.1 | 
S=c1nc(/C=C/c2ccc(Cl)c(Cl)c2)[nH][nH]1 |  | 95.5 |  | GI50 (NCI/ADR-RES ovarian): > 100 µM; TGI (NCI/ADR-RES ovarian): > 100 µM; GI50 (MDA-MB-435): 86.7 µM; TGI (MDA-MB-435): > 100 µM; GI50 (DU-145 prostate): > 100 µM; TGI (DU-145 prostate): > 100 µM; GI50 (T-47D breast): 77.1 µM; TGI (T-47D breast): > 100 µM; GI50 (HS 578T breast): > 100 µM; TGI (HS 578T breast): > 100 µM; GI50 (BT-549 breast): 31.3 µM; TGI (BT-549 breast): > 100 µM; GI50 (MCF7 breast): > 100 µM; TGI (MCF7 breast): > 100 µM
CCCCCNC(=O)C1C(=O)N(CCCCC)C(=O)/C1=N\N (stereo not given) | > 100 |  | > 100 | 
O=C(NCCS(=O)(=O)N1C(=O)C2CCCN2C(=O)[C@@H]1Cc1ccccc1)OCc1ccccc1 (stereo not given in full) | > 100 | 11 | > 100 | 
CCN1N=CSC12C(=O)N(c1ccccc1)C(=O)N2c1ccccc1 (stereo not given) | > 100 | > 100 | > 100 | 
COc1ccc(Nc2nc3c(N)cc(C(F)(F)F)cc3nc2-c2ccccc2)cc1 | > 100 | > 100 | > 100 | 
C[CH2][Sn]([CH2]C)([O]C(=O)c1cc(OC)c(OC)c(OC)c1)[O][Sn]([CH2]C)([CH2]C)[O]C(=O)c1cc(OC)c(OC)c(OC)c1 | 42.4 | 31.3 |  | GI50 (HOP-18 NSCLC): 22.2 µM; GI50 (XF 498 CNS): 16.9 µM
O=C1/C(=C/c2ccccc2Cl)COc2ccccc21 | 24 | 29.2 | 31.6 | 
Cn1c(=O)c2c(nc3n2C(CCl)CO3)n(C)c1=O (stereo not given) | > 100 |  |  | 
COc1ccc(Br)c(CCCCC(=O)O)c1 | > 100 | > 100 | > 100 | 
COc1cc(-c2[nH]ncc2CCCC(=O)Nc2ccccc2[N+](=O)[O-])ccc1O | > 100 | > 100 | > 100 | 
CN(C)CC1CCCC(CN(C)C)C1=O (stereo not given) | 3.32 | 3.69 | 0.998 | GI50 (MDA-MB-435): 19.6 µM and 8.54 µM; TGI (MDA-MB-435): 39.1 µM and 23.8 µM; TGI (DU-145 prostate): 29.4 µM; TGI (T-47D breast): 4.23 µM and 3.38 µM; GI50 (HS 578T breast): 3.26 µM and 26.5 µM; TGI (HS 578T breast): > 100 µM and 80.3 µM; GI50 (BT-549 breast): 3.24 µM and 19.4 µM; TGI (BT-549 breast): 10.7 µM and 38 µM; GI50 (MCF7 breast): 0.575 µM and 3.45 µM; TGI (MCF7 breast): 6 µM and > 41.7 µM
CCOc1ccc(NC(=O)/C(=C/c2ccccc2)C(C)=O)cc1 | 25.5 | 28.9 |  | 
COc1ccc(C(=O)Nc2ccccc2)cc1[N+](=O)[O-] |  | > 100 | > 100 | 
COc1ccccc1NS(=O)(=O)c1cc(C(C)(C)C)ccc1OCCOc1ccc(C(C)(C)C)cc1S(=O)(=O)Nc1ccccc1OC | > 100 |  |  | 
CCOC(=O)C1=C(O)CSC1=Nc1ccc(N=C2SCC(O)=C2C(=O)OCC)cc1 |  | 42 | 57.9 | 
COc1ccc(C(=O)Nc2ccccc2C#N)cc1 | > 100 | > 100 |  | 
CC1(C)CC[C@]2(C(=O)O)CCC3(C)C(=CCC4[C@@]5(C)CC[C@H](OC6OCC(O)C(O)C6OC6OC(CO)C(O)C(O)C6O)C(C)(C)C5CC[C@]43C)C2C1 (stereo not given in full) | 3.48 | 4.59 | 3.39 | 
Fc1cccc(C=NC23CC4CC(CC(C4)C2)C3)c1 | > 100 | > 100 | > 100 | 
CC(=O)[CH-]C(=O)c1ccccc1.CC(=O)[CH-]C(=O)c1ccccc1.[O-]Cc1cccs1.[O-]Cc1cccs1.[Ti+4] |  |  | > 100 | GI50 (LXFL 529 NSCLC): 25.3 µM
Clc1ccc(C2=NN(c3ccccc3)C3c4cc(Br)ccc4OCC23)cc1 (stereo not given) | > 100 | > 100 | > 100 | 
Cc1ccc(NC(=O)CCC(=O)C2CC(=O)CCC2=O)cc1C (stereo not given) | > 100 |  | > 100 | 
Nc1ccc(C(=O)O)c2[nH]c3ccccc3c(=O)c12 | > 100 |  | > 100 | 
CCN1CCC(O)(c2ccccc2)C(C(=O)c2ccccc2)C1 (stereo not given) | 28 | 29.9 | 29.4 | 
